What all share (assay type): cell-based
In one assay the target is T1, human TLR8 (Homo sapiens, UniProt Q9NR97).
T1 construct: host or cells: HEK-Blue cells
T1 sequence (Q9NR97 27-1041): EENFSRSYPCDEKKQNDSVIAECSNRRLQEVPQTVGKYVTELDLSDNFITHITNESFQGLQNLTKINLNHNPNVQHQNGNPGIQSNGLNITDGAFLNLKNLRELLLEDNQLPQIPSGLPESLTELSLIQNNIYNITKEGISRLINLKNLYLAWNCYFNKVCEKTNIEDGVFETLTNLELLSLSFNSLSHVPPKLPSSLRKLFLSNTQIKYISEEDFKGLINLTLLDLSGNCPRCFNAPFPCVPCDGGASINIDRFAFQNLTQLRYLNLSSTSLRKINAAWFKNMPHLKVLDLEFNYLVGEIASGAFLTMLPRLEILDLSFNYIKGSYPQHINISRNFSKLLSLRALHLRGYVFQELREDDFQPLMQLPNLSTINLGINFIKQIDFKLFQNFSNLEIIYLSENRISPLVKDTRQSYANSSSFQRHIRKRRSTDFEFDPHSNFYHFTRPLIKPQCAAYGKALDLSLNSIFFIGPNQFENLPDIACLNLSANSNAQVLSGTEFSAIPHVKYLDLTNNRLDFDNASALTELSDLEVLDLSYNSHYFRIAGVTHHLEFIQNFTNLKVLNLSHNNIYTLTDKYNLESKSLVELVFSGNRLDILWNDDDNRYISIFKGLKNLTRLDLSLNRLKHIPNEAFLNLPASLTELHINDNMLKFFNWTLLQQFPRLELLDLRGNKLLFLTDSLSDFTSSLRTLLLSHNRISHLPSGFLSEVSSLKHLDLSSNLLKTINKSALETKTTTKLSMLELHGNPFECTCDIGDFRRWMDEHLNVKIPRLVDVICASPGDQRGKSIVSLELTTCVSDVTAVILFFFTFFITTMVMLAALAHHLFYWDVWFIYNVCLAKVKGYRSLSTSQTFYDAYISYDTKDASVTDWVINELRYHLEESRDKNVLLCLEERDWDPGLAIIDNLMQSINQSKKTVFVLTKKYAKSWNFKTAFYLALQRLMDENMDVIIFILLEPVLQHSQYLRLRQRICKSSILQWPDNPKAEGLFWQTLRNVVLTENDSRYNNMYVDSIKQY
As to the kind of experiment: TLR8 inhibition reporter assay (HEK-Blue cells, SEAP reporter, R848 stimulation). As to conditions: HEK-Blue cells overexpressing human TLR8, SEAP reporter, R848 15.9 μM. An outline of the steps: (§1)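 Percent inhibition is derived from SEAP signal, scaled between agonist-plus-DMSO wells and wells given a known inhibitor. Test compounds (0.05 nM–50 μM) are pre-incubated 30 min at room temperature before agonist addition (TLR7: 7.5 μM gardiquimod; TLR8: 15.9 μM R848; TLR9: 5 nM ODN2006) and 22 h culture at 37 °C.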
A general note: A reporter such as luciferase makes a cellular process visible.

The target of the next assay is T2, human TLR7 (Homo sapiens, UniProt Q9NYK1).
T2 construct: host or cells: HEK-Blue cells
T2 sequence (Q9NYK1 27-1049): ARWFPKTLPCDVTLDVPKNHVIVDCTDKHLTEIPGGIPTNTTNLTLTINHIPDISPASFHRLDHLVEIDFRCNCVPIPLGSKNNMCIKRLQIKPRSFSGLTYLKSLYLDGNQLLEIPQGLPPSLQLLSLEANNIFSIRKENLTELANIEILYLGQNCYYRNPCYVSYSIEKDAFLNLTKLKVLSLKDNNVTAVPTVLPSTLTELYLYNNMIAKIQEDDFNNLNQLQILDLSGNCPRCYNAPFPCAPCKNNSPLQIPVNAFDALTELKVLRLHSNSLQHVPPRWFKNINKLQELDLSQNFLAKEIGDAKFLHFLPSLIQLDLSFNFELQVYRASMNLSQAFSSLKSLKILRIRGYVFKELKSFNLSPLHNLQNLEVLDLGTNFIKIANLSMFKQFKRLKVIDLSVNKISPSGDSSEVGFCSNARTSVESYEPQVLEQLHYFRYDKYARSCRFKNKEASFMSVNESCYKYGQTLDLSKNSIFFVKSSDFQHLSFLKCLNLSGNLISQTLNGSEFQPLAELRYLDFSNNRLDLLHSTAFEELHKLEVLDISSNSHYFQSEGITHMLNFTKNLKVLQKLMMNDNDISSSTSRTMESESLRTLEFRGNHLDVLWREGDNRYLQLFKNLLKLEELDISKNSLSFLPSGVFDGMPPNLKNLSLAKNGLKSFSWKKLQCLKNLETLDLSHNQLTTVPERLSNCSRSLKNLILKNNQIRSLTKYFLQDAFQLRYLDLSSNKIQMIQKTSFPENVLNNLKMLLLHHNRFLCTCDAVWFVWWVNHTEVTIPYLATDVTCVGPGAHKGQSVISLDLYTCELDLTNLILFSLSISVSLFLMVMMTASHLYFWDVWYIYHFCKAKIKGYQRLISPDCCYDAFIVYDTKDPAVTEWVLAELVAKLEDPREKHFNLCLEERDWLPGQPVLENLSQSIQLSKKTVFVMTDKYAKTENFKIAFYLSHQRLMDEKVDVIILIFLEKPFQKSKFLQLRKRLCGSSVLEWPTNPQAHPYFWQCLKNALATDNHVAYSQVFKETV
As to the kind of experiment: TLR7 inhibition reporter assay (HEK-Blue cells, SEAP reporter, gardiquimod stimulation). As to conditions: HEK-Blue cells overexpressing human TLR7, SEAP reporter, gardiquimod 7.5 μM. An outline of the steps:
as §1

The next assay has as its target T3, human TLR9 (Homo sapiens, UniProt Q9NR96).
T3 construct: host or cells: HEK-Blue cells
T3 sequence (Q9NR96 26-1032): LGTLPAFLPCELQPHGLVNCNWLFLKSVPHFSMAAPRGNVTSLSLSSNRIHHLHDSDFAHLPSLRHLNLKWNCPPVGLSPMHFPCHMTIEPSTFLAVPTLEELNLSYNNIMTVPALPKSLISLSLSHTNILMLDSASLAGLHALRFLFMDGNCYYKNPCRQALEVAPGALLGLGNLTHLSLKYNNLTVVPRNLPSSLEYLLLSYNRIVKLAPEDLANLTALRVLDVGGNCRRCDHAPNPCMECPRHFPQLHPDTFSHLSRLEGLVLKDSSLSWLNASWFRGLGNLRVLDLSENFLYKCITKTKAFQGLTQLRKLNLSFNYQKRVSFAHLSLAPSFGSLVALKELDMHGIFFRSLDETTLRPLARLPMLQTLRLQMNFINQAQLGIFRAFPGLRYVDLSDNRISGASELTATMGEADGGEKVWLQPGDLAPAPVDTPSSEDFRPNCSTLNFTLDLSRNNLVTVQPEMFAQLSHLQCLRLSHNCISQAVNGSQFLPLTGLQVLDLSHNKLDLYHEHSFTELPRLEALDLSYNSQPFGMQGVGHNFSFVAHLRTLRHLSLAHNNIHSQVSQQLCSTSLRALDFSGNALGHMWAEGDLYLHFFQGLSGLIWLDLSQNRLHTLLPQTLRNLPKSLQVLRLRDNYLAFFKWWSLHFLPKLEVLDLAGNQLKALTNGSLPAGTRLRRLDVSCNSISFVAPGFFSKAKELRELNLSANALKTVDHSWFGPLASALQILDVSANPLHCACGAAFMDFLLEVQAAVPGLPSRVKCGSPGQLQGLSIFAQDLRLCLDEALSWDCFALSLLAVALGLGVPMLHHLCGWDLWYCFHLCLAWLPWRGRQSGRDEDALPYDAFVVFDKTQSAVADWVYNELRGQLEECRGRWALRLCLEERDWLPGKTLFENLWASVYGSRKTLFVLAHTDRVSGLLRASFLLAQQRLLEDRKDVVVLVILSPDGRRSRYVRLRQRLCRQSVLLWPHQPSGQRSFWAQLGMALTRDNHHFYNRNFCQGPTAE
As to the kind of experiment: TLR9 inhibition reporter assay (HEK-Blue cells, SEAP reporter, ODN2006 stimulation). As to conditions: HEK-Blue cells overexpressing human TLR9, SEAP reporter, ODN2006 5 nM. The method, boiled down:
as §1

Each structure is given as a SMILES string. Some results are limits rather than exact numbers.

For 14 compounds, IC50 results are on record in US11878975B2, “Substituted indole compounds useful as TLR inhibitors” (BRISTOL-MYERS SQUIBB COMPANY, priority 2017, dated 2024).

Usually IC50 stands for the point on the concentration scale where inhibition reaches its midpoint. Lower therefore signals greater potency. Take `Cc1cc(-c2[nH]c3ccc(C4CCCNC4)cc3c2C(C)C)cc(C)n1` (stereo not drawn) [Example 187]: the IC50 was determined as 3.9 nM on human TLR8, 2 nM on human TLR7 and 274 nM against human TLR9.

As to `CNC(=O)CNC1CCC(c2ccc3[nH]c(-c4cc(C)c5ncnn5c4)c(C(C)C)c3c2)CC1` (single isomer, unassigned) [Example 162, 2-((4-(3-isopropyl-2-(8-methyl-[1,2,4]triazolo[1,5-a]pyridin-6-yl)-1H-indol-5-yl)cyclohexyl)amino)-N-methylacetamide], the concentration for half-maximal inhibition (IC50) against human TLR8 turned out to be 1.2 nM; against human TLR7, 0.56 nM; on human TLR9, 2110 nM.

Turning to `Cc1cc(-c2[nH]c3ccc(C4CN(CCS(C)(=O)=O)CCO4)cc3c2C(C)C)cn2ncnc12` (stereo not drawn) [Example 343, 2-(3-isopropyl-2-(8-methyl-[1,2,4]triazolo[1,5-a]pyridin-6-yl)-1H-indol-5-yl)-4-(2-(methylsulfonyl)ethyl)morpholine], the IC50 is 34 nM against human TLR8, 10 nM against human TLR7 and over 50000 nM at human TLR9.

On to `COCCN1CCCC(c2ccc3[nH]c(-c4cc(OC)c5ncnn5c4)c(C(C)C)c3c2)C1` (stereo not drawn) [Example 251, 6-(3-isopropyl-5-(1-(2-methoxyethyl)piperidin-3-yl)-1H-indol-2-yl)-8-methoxy-[1,2,4]triazolo[1,5-a]pyridine], for which the IC50 against human TLR8 was 3.2 nM; at human TLR7 it was 3 nM; against human TLR9, 5260 nM.

Take `Cc1cc(-c2[nH]c3ccc(C4CCC5(CC4)NC(=O)NC5=O)cc3c2C(C)C)cc(C)n1` (stereo not drawn) [Example 366, 8-(2-(2,6-dimethylpyridin-4-yl)-3-isopropyl-1H-indol-5-yl)-1,3-diazaspiro[4.5]decane-2,4-dione]: the IC50 at human TLR8 is 183 nM; on human TLR7, 6 nM; against human TLR9, 21700 nM.

`CCN(C)C1CCC(c2ccc3[nH]c(-c4cn5ncnc5c(C)c4C)c(C(C)C)c3c2)CC1` (stereo not drawn) [Example 88]: the IC50 against human TLR8 came to 4.7 nM; against human TLR7 it was 2 nM; on human TLR9 it was 1980 nM.

Turning to `CNCC(=O)N1CCOC(c2ccc3[nH]c(-c4cc(C)c5ncnn5c4)c(C(C)C)c3c2)C1` (stereo not drawn) [Example 338], the IC50 at human TLR8 turned out to be 7.1 nM; against human TLR7 it was 0.78 nM; on human TLR9 it was 2050 nM.

With `Cc1cc(-c2[nH]c3ccc(C4CN(CC(N)=O)CCO4)cc3c2C(C)C)cn2ncnc12` (stereo not drawn) [Example 318], the values for the IC50 on human TLR8, against human TLR7 and against human TLR9 were 48 nM, 6 nM and over 50000 nM, respectively.

For the compound `Cc1cc(-c2[nH]c3ccc(C4CN(C(C)C)CCO4)cc3c2C(C)C)cc(C)n1` (stereo not drawn) [Example 305], the IC50 worked out at 0.94 nM on human TLR8, 32 nM on human TLR7 and 1010 nM at human TLR9.

As to `COc1cc(-c2[nH]c3ccc(C4CCC(N)CC4)cc3c2C(C)C)cn2ncnc12` (single isomer, unassigned) [Example 2, 4-(3-isopropyl-2-(8-methoxy-[1,2,4]triazolo[1,5-a]pyridin-6-yl)-1H-indol-5-yl) cyclohexanamine], the IC50 against human TLR8 is 1.1 nM; against human TLR7, 0.37 nM; against human TLR9, 3420 nM.

For `COc1cc(-c2[nH]c3ccc(C4CN(C(=O)CN(C)C)CCO4)cc3c2C(C)C)cn2ncnc12` (stereo not drawn) [Example 332], the IC50 came to 6.2 nM against human TLR8, 0.65 nM against human TLR7 and 2800 nM against human TLR9.

Take `COc1cc(-c2[nH]c3ccc(C4CCCNC4)cc3c2C(C)C)cn2ncnc12` (single isomer, unassigned) [Example 183]: the IC50 at human TLR8 was determined as 7.9 nM; against human TLR7, 2 nM; at human TLR9, 4630 nM.

As to `CCc1c(-c2ccnc(C)c2)[nH]c2ccc(CNC(=O)C3CCN(C)CC3)cc12` [Example 446], the IC50 at human TLR8 stood at 70 nM; against human TLR7 it was 541 nM; against human TLR9, 406 nM.

Consider `Cc1c(-c2[nH]c3ccc(C4CCC(N(C)C5COC5)CC4)cc3c2C(C)C)cn2cnnc2c1C` (stereo not drawn) [Example 526], for which the IC50 at human TLR8 amounted to 34 nM; against human TLR7 it was 6 nM; against human TLR9 it was 6970 nM.
